Results reported in patent US6348614B1 (priority 1996, dated 2002).
Read-outs that look alike come from different tables or passages of the source.

Legend:
cladosporium cucumerinum = settings: cited from earlier work
Venturia inaequalis = settings: 0.03 M; cited from earlier work
Phytophthora infestans [1] = settings: applied to leaves of tomato; cited from earlier work
Erysiphe graminis hordei = test: Powdery mildew in barley (Table 5)
Text: (§1) For the following experiments we have used 10-days old potted wheat plants (Triticum asetivum cultivar Atir) and barley plants (Hhordeum vulgaris cultivar Amidon).
(§2) Plants were sprayed with the test compounds and two days lated were inoculated with the powdery mildew fungal pathogens. Wheat was inoculated with Erysiphe granims tritici. Barley was inoculated with the powdery Erysiphe granims hordei.
(§3) Inoculation was done by shaking infected donor plants harboring abundant conidia over the treated plants. Untreated plants were also inoculated as controls. Inoculated plants were placed in a growth chamber at 20-22C with 1 rhr photoperioed and 50-60% RH. At 9-10 days after inoculation disease intesity was visually assessed by estimating the percentage leaf area occupied by fungal colonies.
(§4) Control efficacy of the disease achieved by the sprayed test compound was calculated relative to the amount of disease seen in the control.

Phytophthora infestans [2] = assay type: in vivo
Phytophthora infestans [3] = assay type: in vivo; remark: listed apart in the source
[4] = test system: Erysiphe graminis tritici; test: Powdery mildew in wheat (Table 5)
Text: as §1, §2, §3, §4

[5] = test system: Erysiphe graminis tritici; test: Powdery mildew in wheat, additional examples (Table 6); assay type: in vivo; settings: 500 ppm, 7 days after inoculation
Procedure: Wheat plants (cv.Shafir) were raised from seed in the greenhouse, 30 plants per 0.2 liter pot. When the first leaf was fully developed plants were sprayed with the test solutions and placed in a 20° C. growth cabinet. Two days after spraying plants were dusted with conidia of E. graminis tritict so that about 100 spores were settled on 1 cm^2 of leaf area (both surfaces). […] Control efficacy was calculated relative to number of colonies developed on the control-inoculated untreated plants.

Phytophthora infestans [6] = assay type: in vivo; settings: Tomato, 500 ppm, 7 days after inoculation
[7] = test system: Pseudoperonospora cubensis; test: Downy mildew in cucumber (Table 8); settings: 500 ppm, 7 days after inoculation
Procedure: Cucumber plants (cv,Dlila) and melon plants (cv.Ein Dor) were raised from seeds in 0.2 liter pots in the greenhouse. At 3 weeks after sowing when had 3 true leaves they were inoculated with sporangial suspension (1000 sporangia/ml) of P.cubensis (resistant to metalaxyl) and placed in 100% relative humidity in the dark for 20 hr. They were then place in a 20° C. growth cabinet for 7 days and assessed for disease development. Percentage leaf area covered with disease symptoms was evaluated and control efficacy was calculated relative to control inoculated plants.

[8] = Barley 17.9.96, dose 500 (unit not given)
[9] = Barley 17.9.96, dose 2000 (unit not given)
[10] = Wheat 7.8.96, dose 500 (unit not given)
[11] = Wheat 7.8.96, dose 2000 (unit not given)

NC(CO)C(=O)O (racemic) [DL-serine]
behaviour as chemotherapeutant against the fungus on cucumber (cladosporium cucumerinum): behaved as chemothrerpeutants

C[C@@H](O)[C@H](N)C(=O)O (racemic) [DL-threonine]
behaviour as chemotherapeutant against the fungus on cucumber (cladosporium cucumerinum): behaved as chemothrerpeutants

CCC(N)C(=O)O (racemic) [DL-α-aminobutyric acid]
reduction of scab in apple (Venturia inaequalis): reduce scab

CC(N)CC(=O)O (racemic) [DL-β-aminobutyric acid]
protection of tomato leaves (Phytophthora infestans [1]): protected those leaves

CC(CC(=O)NCc1ccccc1)NS(=O)(=O)c1ccccc1 (racemic) [Example 1, D,L-N-benzenesulfonyl-3-amino N-benzyl butyramide]
Control Efficacy % (Erysiphe graminis hordei; [8]): 25% | Control Efficacy % (Erysiphe graminis hordei; [9]): 75% | Control Efficacy % (Phytophthora infestans [2]; Tomato, 12.7.96, 500 ppm): 82% | Control Efficacy % (Phytophthora infestans [2]; Tomato, 12.7.96, 2000 ppm): 97% | Control Efficacy % (Phytophthora infestans [2]; Tomato, 14.8/96, 2000 ppm): 90% | Control Efficacy % (Phytophthora infestans [3]; Potato, 14.8.96, 2000 ppm): 72% | Control Efficacy % (Phytophthora infestans [3]; Potato, 17.7.096, 500 ppm): 57% | Control Efficacy % (Phytophthora infestans [3]; Potato, 17.7.096, 2000 ppm): 77% | Control Efficacy % (Phytophthora infestans [3]; Potato, 26.7.96, 500 ppm): 49% | Control Efficacy % (Phytophthora infestans [3]; Potato, 26.7.96, 2000 ppm): 79%

CCCCCCCCOC(=O)CC(C)NC(=O)c1ccc(Cl)c(Cl)c1 (racemic) [Example 5, D,L-N-3,4-dichlorobenzoyl-3-aminobutyric acid n-octyl ester]
Control Efficacy % (Erysiphe graminis hordei; [8]): 82% | Control Efficacy % (Erysiphe graminis hordei; [9]): 85% | Control Efficacy % [4, 10]: 76% | Control Efficacy % [4, 11]: 92%

CC(CC(=O)OCCCl)NC(=O)c1ccc(Cl)cc1 (racemic) [Example 6, D,L-N-4-chlorobenzoyl-3-aminobutyric acid 2-chloro-ethyl ester]
Control Efficacy % (Erysiphe graminis hordei; [8]): 62% | Control Efficacy % (Erysiphe graminis hordei; [9]): 75% | Control Efficacy % (Phytophthora infestans [2]; Tomato, 12.7.96, 500 ppm): 76% | Control Efficacy % (Phytophthora infestans [2]; Tomato, 12.7.96, 2000 ppm): 79% | Control Efficacy % (Phytophthora infestans [2]; Tomato, 14.8/96, 2000 ppm): 67% | Control Efficacy % (Phytophthora infestans [3]; Potato, 14.8.96, 2000 ppm): 88% | Control Efficacy % (Phytophthora infestans [3]; Potato, 17.7.096, 500 ppm): 75% | Control Efficacy % (Phytophthora infestans [3]; Potato, 17.7.096, 2000 ppm): 50%

C[C@@H](N)C(=O)O [D-alaninie]
reduction of scab in apple (Venturia inaequalis): reduce scab

CC(C)C[C@@H](N)C(=O)O [D-leucine, D-and DL leucine]
reduction of scab in apple (Venturia inaequalis): reduce scab

N[C@H](CO)C(=O)O [D-serine]
behaviour as chemotherapeutant against the fungus on cucumber (cladosporium cucumerinum): behaved as chemothrerpeutants

CC(C)CC(N)C(=O)O (stereo not drawn) [DL leucine]
reduction of scab in apple (Venturia inaequalis): reduce scab

CCCOC(=O)CC(C)NS(=O)(=O)c1ccc(Cl)cc1 (stereo not drawn) [compound 35, D,L N-4-chlorobenzenesulfonyl-3-aminobutyric acid propyl ester]
Control efficacy (%) 7d [5]: 81% | Control efficacy (%) 7d (Phytophthora infestans [6]): 81% | Control efficacy (%) 7d [7]: 77%

Cc1ccc(C(=O)NC(C)CC(=O)OCCC(Cl)(Cl)Cl)cc1 (stereo not drawn) [compound 36, D,L N-4-methylbenzoyl-3-aminobutyric acid 2-(trichloromethyl)ethyl ester]
Control efficacy (%) 7d (Phytophthora infestans [6]): 81% | Control efficacy (%) 7d [7]: 82%

Cc1ccc(C(=O)NC(C)CC(=O)OC2CCCCC2)cc1 (stereo not drawn) [compound 37, D,L N-4-methylbenzoyl-3-aminobutyric acid cyclohexyl ester]
Control efficacy (%) 7d (Phytophthora infestans [6]): 78% | Control efficacy (%) 7d [7]: 75%

CC(CC(=O)OC1CCCCC1)NC(=O)c1ccccc1 (stereo not drawn) [compound 38, D,L N-benzoyl-3-aminobutyric acid cyclohexyl ester]
Control efficacy (%) 7d [5]: 100% | Control efficacy (%) 7d (Phytophthora infestans [6]): 78% | Control efficacy (%) 7d [7]: 80%

CC(CC(=O)OC1CCCCC1)NS(=O)(=O)c1ccccc1 (stereo not drawn) [compound 39, D,L N-benzenesulfonyl-3-aminobutyric acid cyclohexyl ester]
Control efficacy (%) 7d (Phytophthora infestans [6]): 75% | Control efficacy (%) 7d [7]: 70%

CCCCCCCOC(=O)CC(C)NS(=O)(=O)c1ccc(Cl)cc1 (stereo not drawn) [compound 40, D,L N-4-chlorobenzenesulfonyl-3-aminobutyric acid heptyl ester]
Control efficacy (%) 7d [7]: 82%

CCCCC(C)OC(=O)CC(C)NC(=O)c1ccccc1NC (stereo not drawn) [compound 52, D,L N-2-methylaminobenzoyl-3-aminobutyric acid 1-methylpentyl ester]
Control efficacy (%) 7d (Phytophthora infestans [6]): 75% | Control efficacy (%) 7d [7]: 97%

D,L-N-β-methyl benzoyl-3-aminobutyric acid n-octyl ester [Example 3]
Control Efficacy % (Phytophthora infestans [2]; Tomato, 12.7.96, 2000 ppm): 70% | Control Efficacy % (Phytophthora infestans [2]; Tomato, 14.8/96, 2000 ppm): 93% | Control Efficacy % (Phytophthora infestans [3]; Potato, 14.8.96, 2000 ppm): 88% | Control Efficacy % (Phytophthora infestans [3]; Potato, 17.7.096, 500 ppm): 70% | Control Efficacy % (Phytophthora infestans [3]; Potato, 17.7.096, 2000 ppm): 81% | Control Efficacy % (Phytophthora infestans [3]; Potato, 26.7.96, 500 ppm): 85% | Control Efficacy % (Phytophthora infestans [3]; Potato, 26.7.96, 2000 ppm): 92%

N-β-methyl benzoyl-3 aminobutyric acid-sec. butyl ester [Example 4]
Control Efficacy % (Erysiphe graminis hordei; [8]): 87% | Control Efficacy % (Erysiphe graminis hordei; [9]): 95% | Control Efficacy % (Phytophthora infestans [2]; Tomato, 12.7.96, 2000 ppm): 85% | Control Efficacy % (Phytophthora infestans [2]; Tomato, 14.8/96, 2000 ppm): 90% | Control Efficacy % [4, 10]: 96% | Control Efficacy % [4, 11]: 96% | Control Efficacy % (Phytophthora infestans [3]; Potato, 14.8.96, 2000 ppm): 77% | Control Efficacy % (Phytophthora infestans [3]; Potato, 17.7.096, 500 ppm): 56% | Control Efficacy % (Phytophthora infestans [3]; Potato, 17.7.096, 2000 ppm): 75% | Control Efficacy % (Phytophthora infestans [3]; Potato, 26.7.96, 500 ppm): 23% | Control Efficacy % (Phytophthora infestans [3]; Potato, 26.7.96, 2000 ppm): 42%
